From PubChem BioAssay (NCI)
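Where inhibition never reached the appropriate level, the endpoint shown equals the highest concentration tested. Otherwise, values were interpolated linearly from a five-concentration, 48-hour dose response in 96-well plates. At the GI50, growth is halved. TGI denotes the concentration required for complete inhibition of growth.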

Assays:
Test in all cases: inhibition of tumour cell growth, NCI panel, 48 h
[1] = tested on: A549 NSCLC
[2] = tested on: CAKI-1 renal
[3] = tested on: HOP-92 NSCLC
[4] = tested on: HS 578T breast
[5] = tested on: NCI-H460 lung
[6] = tested on: OVCAR-3 ovarian
[7] = tested on: RPMI-8226 leukemia
[8] = tested on: SK-MEL-28 melanoma

Structure (SMILES) | GI50 [1] [µM] | TGI [1] [µM] | GI50 [2] [µM] | TGI [2] [µM] | GI50 [3] [µM] | TGI [3] [µM] | GI50 [4] [µM] | TGI [4] [µM] | GI50 [5] [µM] | TGI [5] [µM] | GI50 [6] [µM] | TGI [6] [µM] | GI50 [7] [µM] | TGI [7] [µM] | GI50 [8] [µM] | TGI [8] [µM]
N#CC1=C(N)Oc2c(ccc3ccccc23)C1c1cc2ccccc2n2nnnc12 (stereo not drawn) | 3.02 | > 100 | 5.74 | > 100 | 0.49 | 7.47 | 1.51 | 49.3 | 0.496 | > 100 | 0.44 | 3.36 | 0.927 | > 100 | 4.04 | > 100
O=C(CCN1CCOCC1)Nc1ccc(Cn2nnc3c2C(=O)c2nnn(Cc4ccc(NC(=O)CCN5CCOCC5)cc4)c2C3=O)cc1 | > 100 | > 100 | > 100 | > 100 | 2.36 | 4.64 | 3.03 | 24.9 | 0.569 | > 100 | 0.333 | 1.39 | 1.43 | > 21.1 | – | –
O=C1NC(=NCc2cccs2)O/C1=C\c1ccc2ncccc2c1 | 4.46 | 12.5 | 3.86 | 12.3 | 1.51 | 9.66 | 4.72 | 14.8 | 6.62 | > 25 | 4.46 | 12.6 | 4.26 | 17.3 | 5.87 | 18
CCN1CCN(CC(=O)Nc2nc3ccc(NCc4ccc(Br)cc4)cc3s2)CC1 | – | – | 1.84 | 4.55 | 1.21 | 3.04 | 1.77 | 4.81 | – | – | – | – | 1.54 | 4.07 | 1.92 | 3.76
CN(C)CCCC1(c2ccc(F)cc2)OCc2cc(-c3csc4ccccc34)ccc21 (stereo not drawn) | 1.82 | 3.66 | 1.62 | 3.05 | 1.4 | 2.95 | 1.74 | 3.76 | 1.6 | 3.18 | 1.73 | 3.26 | – | – | 1.68 | 3.07
Cc1cccc(Oc2ccc(Nc3ncnc4ccc(NC(=O)CN(C)C)cc34)cc2Cl)c1 | 1.91 | 10.1 | 1.1 | 2.97 | 1.4 | 3.99 | 1.81 | 4.33 | 1.81 | 3.35 | 1.16 | 3 | – | – | 1.85 | 3.48
CC[C@]12C=CCN3CC[C@@]4(c5ccc(OC)cc5N(C)[C@H]4[C@@](O)(C(=O)OC)[C@@H]1OC(=O)CCCN1CCN(CCCC(=O)O[C@@H]4[C@]5(CC)C=CCN6CC[C@@]7(c8ccc(OC)cc8N(C)[C@H]7[C@@]4(O)C(=O)OC)[C@@H]65)CC1)[C@@H]32 | 1.31 | 2.95 | 0.436 | 1.91 | – | – | 1.39 | 3.38 | 1.11 | 2.5 | 1.38 | 2.82 | 0.547 | 2.26 | 1.4 | 2.78
O=S(=O)(Nc1ccccc1)c1ccc(C2CC3(Cl)C(Cl)=C(Cl)C2(Cl)C3(Cl)Cl)cc1 (stereo not drawn) | 3.11 | 11 | 2.16 | 6.27 | 1.84 | 5.08 | – | – | 1.96 | 3.72 | 2.18 | 4.13 | 2.53 | 7.28 | – | –
CN(C)[C@@H]1C(=O)C(C(=O)NCc2nc3[nH]cnc(=S)c3[nH]2)=C(O)[C@@]2(O)C(=O)C3=C(O)c4c(O)cccc4[C@@](C)(O)[C@H]3C[C@@H]12 | > 100 | > 100 | 3 | > 100 | – | – | > 100 | > 100 | 19.1 | > 100 | 2.52 | > 100 | 4.35 | > 100 | > 100 | > 100
C#CCCCCCC(=O)N[C@H]1C=C[C@@H]2/C=C(C)/C=C/[C@@H](C)[C@H]([C@H](C)[C@H](O)[C@@H](C)NC(C)=O)OC(=O)/C=C/C=C(C)\C=C\[C@]2(C)C1 | < 0.004 | > 40 | – | – | < 0.004 | 0.0159 | 0.00422 | > 40 | < 0.004 | > 40 | 0.00889 | > 40 | < 0.004 | 4.61 | 0.00795 | 12.3
CC(=O)O[C@H]([C@H](OC(C)=O)[C@H](C)OC(C)=O)[C@@H](/C=C/[C@H]1CC=CC(=O)O1)OC(C)=O | > 100 | > 100 | 79.7 | > 100 | 23.5 | 62.4 | 65.5 | > 100 | 59.4 | > 100 | – | – | 26.3 | 89.8 | 39.2 | > 100
COc1cc2c(cc1C)NC(=O)/C2=C\c1ccc(Oc2ccccc2)cc1 | 14.7 | 33.4 | 17 | 33 | 2.03 | 9.19 | 20.7 | 46.9 | – | – | 17.2 | 34.3 | 12.1 | 31.6 | 15.7 | 29.5
CC(=O)O[C@H]1C[C@@H]2[C@@]3(C)CC[C@H]4C[C@@]4(C)[C@@H]3CC[C@@]2(C)C2=CCC3=C(COC3=O)[C@]21C | 20.8 | 44.4 | – | – | 16.7 | 35 | 10.2 | 27.3 | 29.9 | > 100 | 10.1 | 25.7 | 17.9 | 50.2 | 21.6 | 44
C=CCN(CC=C)Cc1c[nH]c2ccccc12 | 31.5 | > 100 | 19.8 | > 100 | > 100 | > 100 | – | – | 21.8 | 62.3 | – | – | 17.8 | > 100 | > 100 | > 100
O=C1Nc2ccc(Cl)cc2/C1=N/c1nc(-c2ccc(Cl)cc2)cs1 | – | – | – | – | – | – | – | – | – | – | 1.3 | 4.56 | – | – | – | –
O=C(/C=C(\[O-])c1ccccc1)CCCCCCC(=O)/C=C(\[O-])c1ccccc1.O=C(/C=C(\[O-])c1ccccc1)CCCCCCC(=O)/C=C(\[O-])c1ccccc1.O=C(/C=C(\[O-])c1ccccc1)CCCCCCC(=O)/C=C(\[O-])c1ccccc1.[Y+3].[Y+3] | > 50 | > 50 | > 50 | > 50 | 17 | > 50 | – | – | > 50 | > 50 | > 50 | > 50 | 44.8 | > 50 | > 50 | > 50
